Test results from patent US7517960B2, “Rat KCNQ5 voltage-gated potassium channel” (Wyeth, priority 2006, dated 2009).

Experiments:
[1] = tested on: rat KCNQ5/KCNQ3 heteromeric channels; test: Two-electrode voltage clamp recording of rKCNQ5 co-expressed with KCNQ3 in Xenopus laevis oocytes; format: cell-based; settings: FIG. 2D
Text: There is a significant increase in the current amplitude of the rat KCNQ5/KCNQ3 heteromeric channels compared with that of the rKCNQ5 or rat KCNQ3 homomeric channels. The homomeric channels here refer to those with only one type of channel subunits expressed in Xenopus laevis oocytes. In this case, it refers to either rKCNQ5 alone (FIG. 2A) or rat KCNQ3 alone (FIG. 2B). Heteromeric channels means that the functional channels are composed of subunits of both rKCNQ5 and rat KCNQ3 (FIG. 2C). It is believed that those functional channels are composed of 4 such subunits. Therefore, the functional channels are “tetramers”. If the 4 subunits are the same type (e.g. 4 rKCNQ5 subunits, or 4 rat KCNQ3 subunits), there are known as “homotetramers”. If the 4 subunits in these functional channels are different (e.g., 2 rKCNQ5+2 rat KCNQ3, or 3 rat KCNQ5+1 rat KCNQ3, etc.), they are known as “heterotetramers”.
For Examples 4 and 5, the cRNAs of rKONQ5 were injected directly into Xenopus laevis oocytes and the electrophysiological recordings were performed 48-72 hours after RNA injection using two-electrode voltage clamp recording (see Jow F and Wang K-W, Mol. Brain Res. 80:269-78 (2000) for methods). The electrodes were filled with 3 M KCI solution with resistances ranging from 0.5 to 1.5 MΩ. […]

[2] = tested on: rat KCNQ5; test: Two-electrode voltage clamp recording of rat KCNQ5 expressed in Xenopus laevis oocytes; format: cell-based; settings: homomeric rKCNQ5, cRNA-injected Xenopus laevis oocytes, recorded 48-72 hours after injection, FIG. 1B
Protocol: The electrodes were filled with 3 M KCl solution with resistances ranging from 0.5 to 1.5 MΩ.
For Examples 4 and 5, the cRNAs of rKONQ5 were injected directly into Xenopus laevis oocytes and the electrophysiological recordings were performed 48-72 hours after RNA injection using two-electrode voltage clamp recording (see Jow F and Wang K-W, Mol. Brain Res. 80:269-78 (2000) for methods). The electrodes were filled with 3 M KCI solution with resistances ranging from 0.5 to 1.5 MΩ. The bath solution pf pH 7.4 was a “ND96” containing the following (in mM): NaCI, 96; KCl, 2; CaCl21.8; MgCl2 1; HEPES, 10 (see FIG. 1A).

O=C1c2ccccc2C(Cc2ccncc2)(Cc2ccncc2)c2ccccc21 [XE991]
current amplitudes of heterotetramer channels [1]: decrease
KCNQ5 channel current amplitude [2]: decreased the current amplitude
